Values quoted from earlier work, collected in patent US10481160B2, “Combined anticancer drug sensitivity-determining marker” (KEIO UNIVERSITY, priority 2012, dated 2019).

System: advanced/recurrent colorectal cancer

SMILES | anti-tumor effect on colorectal cancer
[NH2][Pt]([NH2])([Cl])[Cl] [CDDP, cisplatin] | ineffective
N.N.O=C([O-])C1(C(=O)[O-])CCC1.[Pt+2] [CBDCA, carboplatin] | ineffective
O=C1[O][Pt]2([NH][C@@H]3CCCC[C@H]3[NH]2)[O]C1=O [L-OHP, Oxaliplatin] | exhibits anti-tumor effect
